Results reported in ChEMBL document CHEMBL5729293, “Inhibitors of KEAP1-Nrf2 protein-protein interaction” (2022).

Assay: Fluorescence Based Assay: The details of the KEAP1 KELCH ThermoFluor® Assay Construct are as follows: Kelch domain of human KEAP 1 (321-624 aa) was used in the assay. The protein was expressed in E. coli with 6His tag that was cleaved prior to receipt for use.ThermoFluor® experiments were carried out using instruments owned by Janssen Research and Discovery, L.L.C. through its acquisition of 3-Dimensional Pharmaceuticals, Inc. 1,8-ANS (Invitrogen) was used as a fluorescent dye. Protein (KEAP Kelch) and compound solutions were dispensed into black 384-well polypropylene PCR microplates (Abgene) and overlayed with silicone oil (1 μL, Fluka, type DC 200) to prevent evaporation.Reference wells contained KEAP Kelch without compounds, and the assay conditions were as follows: 1.1 μM (0.037mg/mL) KEAP Kelch, 80 μM 1,8-ANS, 25 mM PIPES, pH 7.0, 100 mM NaCl, 0.002% Tween-20.

| SMILES | Kd [nM] |
| --- | --- |
| Cc1ccc([C@H](CC(=O)O)c2ccn3c(C(F)(F)F)nnc3c2C)cc1CN1CC2(CC2)Oc2nc(NCCN3CCOCC3)ccc2S1(=O)=O | < 1 |
| COCCCNc1ccc2c(n1)OC1(CC1)CN(Cc1cc([C@H](CC(=O)O)c3ccn4c(C(F)(F)F)nnc4c3C)ccc1C)S2(=O)=O | < 1 |
| Cc1ccc([C@@H](CC(=O)O)c2ccn3c(C(F)(F)F)nnc3c2C)cc1CN1C[C@]2(C)CCCN2c2ncccc2S1(=O)=O | < 1 |
| Cc1ccc([C@H](CC(=O)O)c2ccn3c(C(F)(F)F)nnc3c2C)cc1CN1C[C@@H]2CCN2c2ncccc2S1(=O)=O | < 1 |
| Cc1ccc(C(CC(=O)O)c2ccn3c(C(F)(F)F)nnc3c2)cc1CN1C[C@@H]2CCCN2c2ncccc2S1(=O)=O (stereo partly specified) | < 1 |
| Cc1ccc([C@H](CC(=O)O)c2ccn3c(C(F)(F)F)nnc3c2C)cc1CN1C[C@H]2CCCN2c2ccccc2S1(=O)=O | < 1 |
| Cc1ccc([C@@H](CC(=O)O)c2cc(OC3CC3)c3c(c2)nnn3C)cc1CN1C[C@H]2CCCCN2c2ncccc2S1(=O)=O | < 1 |
| CCn1nnc2c(C)c([C@@H](CC(=O)O)c3ccc(C)c(CN4C[C@H]5CCCCN5c5ncccc5S4(=O)=O)n3)ccc21 | < 1 |
| Cc1ccc([C@H](CC(=O)O)c2ccn3c(C(F)(F)F)nnc3c2C)cc1CN1C[C@H]2CCCCN2c2ncccc2S1(=O)=O | < 1 |
| Cc1ccc([C@@H](c2ccn3c(C(F)(F)F)nnc3c2C)C(C)(C)C(=O)O)cc1CN1CC2(CC2)Oc2nc(OCCN3CCCC3)c(C)cc2S1(=O)=O | < 1 |
| Cc1ccc(C(CC(=O)O)c2ccc3c(nnn3C3CC3)c2C)cc1CN1C[C@@H]2CCCCN2c2ccccc2S1(=O)=O (stereo partly specified) | < 1 |
| Cc1ccc([C@H](CC(=O)O)c2ccn3c(C(F)(F)F)nnc3c2C)cc1CN1C[C@@H]2CCC(F)(F)CN2c2ncccc2S1(=O)=O | < 1 |
| Cc1ccc([C@@H](c2ccn3c(C(F)(F)F)nnc3c2C)C(C)(C)C(=O)O)cc1CN1C[C@@]2(CCOC2)Oc2ncccc2S1(=O)=O | < 1 |
| Cc1ccc([C@H](c2ccn3c(C(F)F)nnc3c2C)C(C)(C)C(=O)O)nc1CN1CC2(CC2)Oc2nc(OCCN3CCCC3)c(C)cc2S1(=O)=O | < 1 |
| Cc1ccc([C@@H](c2ccn3c(C(F)(F)F)nnc3c2C)C(C)(C)C(=O)O)cc1CN1CC2(CCOCC2)Oc2nc(O[C@@H](C)CN3CCCCC3)c(C)cc2S1(=O)=O | < 1 |
| CCn1nnc2c(C)c([C@H](CC(=O)O)c3ccc(C)c(CN4CC5(CC5)Oc5ncccc5S4(=O)=O)n3)ccc21 | < 1 |
| Cc1ccc([C@H](CC(=O)O)c2ccc3c(nnn3C3CC3)c2C)cc1CN1C[C@@H]2CCCCN2c2ncccc2S1(=O)=O | < 1 |
| Cc1cnc2c(c1)S(=O)(=O)N(Cc1cc([C@H](c3ccc4c(nnn4C4CC4)c3C)C(C)(C)C(=O)O)ccc1C)CC1(CNC1)O2 | < 1 |
| Cc1cnc2c(c1)S(=O)(=O)N(Cc1cc([C@H](c3ccn4c(C(F)(F)F)nnc4c3C)C(C)(C)C(=O)O)cnc1C)CC1(CC1)O2 | < 1 |
| Cc1cnc([C@@H](c2ccn3c(C(F)F)nnc3c2C)C(C)(C)C(=O)O)cc1CN1CC2(CC2)Oc2nc(OCCN3CCCC3)c(C)cc2S1(=O)=O | < 1 |
| Cc1ccc([C@H](c2ccn3c(C(F)(F)F)nnc3c2C)C(C)(C)C(=O)O)cc1CN1CC2(CCOCC2)Oc2nc(N[C@H](C)C(C)(C)O)c(C)cc2S1(=O)=O | < 1 |
| Cc1cnc2c(c1)S(=O)(=O)N(Cc1cc(C(c3ccn4c(C5CC5)nnc4c3C)C(C)(C)C(=O)O)ccc1C)CC1(CC1)O2 (stereo unspecified) | < 1 |

| SMILES | Kd [nM] |
| --- | --- |
| Cc1ccc([C@@H](c2ccn3c(C(F)(F)F)nnc3c2C)C(C)(C)C(=O)O)cc1CN1CC2(CC2)Oc2nc(OCCN3CCCCC3)c(C)cc2S1(=O)=O | < 1 |
| Cc1cnc2c(c1)S(=O)(=O)N(Cc1cc(C(CC(=O)O)c3ccn4c(C(F)F)nnc4c3C)ccc1C)CC1(CC1)O2 (stereo unspecified) | < 1 |
| CC[C@@H]1CN(Cc2cc([C@@H](CC(=O)O)c3cc(OC(F)F)c4c(c3)nnn4C)ccc2C)S(=O)(=O)c2cccnc2O1 | < 1 |
| Cc1ccc([C@H](CC(=O)O)c2ccn3c(C(F)(F)F)nnc3c2)cc1CN1C[C@@H]2CCCN2c2ncccc2S1(=O)=O | < 1 |
| Cc1ccc([C@@H](CC(=O)O)c2ccn3c(C(F)(F)F)nnc3c2C)cc1CN1C[C@@H]2CCC(F)(F)CN2c2ncccc2S1(=O)=O | < 1 |
| Cc1ncc([C@H](c2ccn3c(C(F)(F)F)nnc3c2C)C(C)(C)C(=O)O)cc1CN1CC2(CCOCC2)Oc2ncccc2S1(=O)=O | < 1 |
| CCn1nnc2c(C)c([C@H](CC(=O)O)c3ccc(C)c(CN4C[C@H]5CCCN5c5ccccc5S4(=O)=O)c3)ccc21 | < 1 |
| Cc1ccc(C(CC(=O)O)c2ccn3c(C(F)F)nnc3c2C)cc1CN1C[C@]2(C)CCCN2c2ncccc2S1(=O)=O (stereo partly specified) | < 1 |
| Cc1cnc2c(c1)S(=O)(=O)N(Cc1cc([C@@H](c3ccc4c(nnn4C4CC4)c3C)C(C)(C)C(=O)O)cnc1C)CC1(CC1)O2 | < 1 |
| CCn1nnc2c(C)c([C@H](CC(=O)O)c3ccc(C)c(CN4CC5(COC5)Oc5ncccc5S4(=O)=O)n3)ccc21 | < 1 |
| CCn1nnc2c(C)c([C@H](CC(=O)O)c3ccc(C)c(CN4C[C@H]5CCCCN5c5ncccc5S4(=O)=O)n3)ccc21 | < 1 |
| Cc1ccc(C(c2ccn3c(C(F)(F)F)nnc3c2C)C(C)(C)C(=O)O)cc1CN1CC2(CCOCC2)Oc2nc(N[C@H](C)CCO)ccc2S1(=O)=O (stereo partly specified) | < 1 |
| Cc1ccc([C@H](CC(=O)O)c2ccn3c(C(F)(F)F)nnc3c2C)cc1CN1C[C@H]2CCCCN2c2nc(C(N)=O)ccc2S1(=O)=O | < 1 |
| Cc1ccc([C@H](c2ccn3c(C(F)(F)F)nnc3c2C)C(C)(C)C(=O)O)cc1CN1CC2(CCOCC2)Oc2nc(OCCN3CCC(F)(F)CC3)ccc2S1(=O)=O | < 1 |
| CCn1nnc2c(C)c(C(CC(=O)O)c3ccc(C)c(CN4CC5(CC5)Oc5ncccc5S4(=O)=O)n3)ccc21 (stereo unspecified) | < 1 |
| Cc1ccc([C@@H](CC(=O)O)c2ccn3c(C(F)(F)F)nnc3c2C)nc1CN1C[C@H]2CCCCN2c2ncc(Cl)cc2S1(=O)=O | < 1 |
| Cc1cc2cc(C(CC(=O)O)c3ccc(C)c(CN4C[C@@H]5CCCCN5c5ncccc5S4(=O)=O)c3)n(C)c2nn1 (stereo partly specified) | < 1 |
| Cc1ccc(C(CC(=O)O)c2ccn3c(C(F)(F)F)nnc3c2C)nc1CN1CC2(COC2)Oc2ncccc2S1(=O)=O (stereo unspecified) | < 1 |
| Cc1ccc([C@@H](CC(=O)O)c2ccn3c(C(F)F)nnc3c2C)cc1CN1C[C@@H]2CCCCN2c2ncccc2S1(=O)=O | < 1 |
| CCn1nnc2c(C)c([C@@H](CC(=O)O)c3ccc(C)c(CN4CC5(CC5)Oc5ncccc5S4(=O)=O)n3)ccc21 | < 1 |
| CC[C@@H]1CN(Cc2cc(C(CC(=O)O)c3ccn4c(C(F)(F)F)nnc4c3)ccc2C)S(=O)(=O)c2cccnc2O1 (stereo partly specified) | < 1 |
| CCn1nnc2c(C)c(C(CC(=O)O)c3ccc(C)c(CN4CC5(COC5)Oc5ncccc5S4(=O)=O)n3)ccc21 (stereo unspecified) | < 1 |

| SMILES | Kd [nM] |
| --- | --- |
| Cc1ccc(C(CC(=O)O)c2ccc3c(nnn3C3CC3)c2C)cc1CN1C[C@]2(C)CCCN2c2ncccc2S1(=O)=O (stereo partly specified) | < 1 |
| Cc1ccc([C@H](CC(=O)O)c2cc(OC3CC3)c3c(c2)nnn3C)cc1CN1C[C@H]2CCCCN2c2ncccc2S1(=O)=O | < 1 |
| Cc1cnc2c(c1)S(=O)(=O)N(Cc1cc(C(c3ccn4c(C(F)F)nnc4c3C)C(C)(C)C(=O)O)ccc1C)CC1(CCOCC1)O2 (stereo unspecified) | < 1 |
| Cc1ccc(C(c2ccn3c(C(F)(F)F)nnc3c2C)C(C)(C)C(=O)O)cc1CN1CC2(CCOCC2)Oc2nc(OCCN3CCOCC3)ccc2S1(=O)=O (stereo unspecified) | < 1 |
| CC[C@@H]1CN(Cc2cc([C@H](CC(=O)O)c3cc(OC(F)F)c4c(c3)nnn4C)ccc2C)S(=O)(=O)c2cccnc2O1 | < 1 |
| Cc1ccc([C@@H](c2ccn3c(C(F)(F)F)nnc3c2C)C(C)(C)C(=O)O)cc1CN1CC2(CC2)Oc2ncccc2S1(=O)=O | < 1 |
| Cc1ccc(C(CC(=O)O)c2ccc3c(nnn3CC3CC3)c2C)cc1CN1C[C@H]2CCCCN2c2ncccc2S1(=O)=O (stereo partly specified) | < 1 |
| Cc1ccc(C(CC(=O)O)c2ccc3c(nnn3CC3CC3)c2C)cc1CN1CC2(CC2)N(C)c2ncccc2S1(=O)=O (stereo unspecified) | < 1 |
| Cc1ccc(C(CC(=O)O)c2ccn3c(C(F)(F)F)nnc3c2C)nc1CN1CC2(COC2)Oc2ccccc2S1(=O)=O (stereo unspecified) | < 1 |
| CC[C@@H]1CN(Cc2nc([C@@H](CC(=O)O)c3ccc4c(nnn4C4CC4)c3C)ccc2C)S(=O)(=O)c2cccnc2O1 | < 1 |
| CCn1nnc2c(C)c([C@H](CC(=O)O)c3ccc(C)c(CN4CC5(CCOCC5)Oc5ccc(F)cc5S4(=O)=O)n3)ccc21 | < 1 |
| Cc1ccc([C@H](CC(=O)O)c2ccn3c(C(F)(F)F)nnc3c2C)cc1CN1CC(C)(C)Oc2ncccc2S1(=O)=O | < 1 |
| Cc1cnc2c(c1)S(=O)(=O)N(Cc1cc([C@H](c3ccn4c(C(F)(F)F)nnc4c3C)C(C)(C)C(=O)O)cnc1C)CC1(CCOCC1)O2 | < 1 |
| Cc1ccc([C@H](CC(=O)O)c2ccn3c(C(F)(F)F)nnc3c2C)cc1CN1C[C@H]2CCCN2c2ncccc2S1(=O)=O | < 1 |
| Cc1ccc([C@H](c2ccn3c(C(F)(F)F)nnc3c2C)C(C)(C)C(=O)O)cc1CN1CC2(CCOCC2)Oc2nc(N[C@@H](C)CCO)c(C)cc2S1(=O)=O | < 1 |
| Cc1ccc([C@@H](CC(=O)O)c2ccn3c(C(F)(F)F)nnc3c2C)cc1CN1CC2(COC2)Oc2ccccc2S1(=O)=O | < 1 |
| Cc1ccc([C@@H](c2ccn3c(C(F)(F)F)nnc3c2C)C(C)(C)C(=O)O)cc1CN1CC2(CC2)Oc2nc(OCCN3CCC(F)CC3)c(C)cc2S1(=O)=O | < 1 |
| Cc1ccc([C@H](CC(=O)O)c2ccn3c(C(F)(F)F)nnc3c2C)cc1CN1CC2(CC2)Oc2ncc(C#N)cc2S1(=O)=O | < 1 |
| Cc1ccc([C@H](c2ccn3c(C(F)(F)F)nnc3c2)C(C)(C)C(=O)O)cc1CN1CC2(CCOCC2)Oc2ncccc2S1(=O)=O | < 1 |
| Cc1ccc([C@H](CC(=O)O)c2ccn3c(C)nnc3c2)cc1CN1C[C@H]2CCCN2c2ccccc2S1(=O)=O | < 1 |
| Cc1ccc([C@@H](c2ccn3c(C(F)F)nnc3c2C)C(C)(C)C(=O)O)cc1CN1CC2(CCOCC2)Oc2nc(OCCN3CCOCC3)ccc2S1(=O)=O | < 1 |
| Cc1cnc2c(c1)S(=O)(=O)N(Cc1cc([C@H](CC(=O)O)c3ccn4c(C(F)F)nnc4c3C)ccc1C)CC1(CC1)O2 | < 1 |
